Results reported in ChEMBL document CHEMBL5252555, “Antimicrobial Polyketides from the Marine-Derived Fungus Spiromastix sp. SCSIO F190” (J Nat Prod, 2023).
Active and inactive are the calls of the source. No cut-off for these calls is given here.

Experiments:
HepG2 = test: Cytotoxicity against human HepG2 cells incubated for 48 hrs by CCK-8 assay; type: functional, cell-based
HeLa = test: Cytotoxicity against human HeLa cells incubated for 48 hrs by CCK-8 assay; type: functional, cell-based
Staphylococcus aureus [1] = test: Antibacterial activity against Staphylococcus aureus ATCC 29213 assessed as inhibition of bacterial growth incubated for 18 hrs by broth microdilution method; type: functional
Staphylococcus aureus [2] = test: Antibacterial activity against Staphylococcus aureus 16339 assessed as inhibition of bacterial growth incubated for 18 hrs by broth microdilution method; type: functional
Staphylococcus aureus [3] = test: Antibacterial activity against Staphylococcus aureus 1862 assessed as inhibition of bacterial growth incubated for 18 hrs by broth microdilution method; type: functional
Staphylococcus aureus [4] = test: Antibacterial activity against Staphylococcus aureus 3090 assessed as inhibition of bacterial growth incubated for 18 hrs by broth microdilution method; type: functional
Staphylococcus aureus [5] = test: Antibacterial activity against Staphylococcus aureus 991 assessed as inhibition of bacterial growth incubated for 18 hrs by broth microdilution method; type: functional
Staphylococcus aureus [6] = test: Antibacterial activity against Staphylococcus aureus 669 assessed as inhibition of bacterial growth incubated for 18 hrs by broth microdilution method; type: functional
Staphylococcus aureus [7] = test: Antibacterial activity against Staphylococcus aureus 745324 assessed as inhibition of bacterial growth incubated for 18 hrs by broth microdilution method; type: functional
Staphylococcus aureus [8] = test: Antibacterial activity against Staphylococcus aureus 16162 assessed as inhibition of bacterial growth incubated for 18 hrs by broth microdilution method; type: functional
Enterococcus faecalis [9] = test: Antibacterial activity against Enterococcus faecalis ATCC 29212 assessed as inhibition of bacterial growth incubated for 18 hrs by broth microdilution method; type: functional
Staphylococcus aureus [10] = test: Antibacterial activity against Staphylococcus aureus GDE4P037P assessed as inhibition of bacterial growth incubated for 18 hrs by broth microdilution method; type: functional
Enterococcus faecalis [11] = test: Antibacterial activity against Enterococcus faecalis 36950 assessed as inhibition of bacterial growth incubated for 18 hrs by broth microdilution method; type: functional
Micrococcus luteus = test: Antibacterial activity against Micrococcus luteus ML01 assessed as inhibition of bacterial growth incubated for 18 hrs by broth microdilution method; type: functional
Staphylococcus simulans = test: Antibacterial activity against Staphylococcus simulans AKA1 assessed as inhibition of bacterial growth incubated for 18 hrs by broth microdilution method; type: functional
Enterococcus faecium [12] = test: Antibacterial activity against Enterococcus faecium 36235 assessed as inhibition of bacterial growth incubated for 18 hrs by broth microdilution method; type: functional
Bacillus subtilis = test: Antibacterial activity against Bacillus subtilis BS01 assessed as inhibition of bacterial growth incubated for 18 hrs by broth microdilution method; type: functional
Enterococcus faecium [13] = test: Antibacterial activity against Enterococcus faecium 35682 assessed as inhibition of bacterial growth incubated for 18 hrs by broth microdilution method; type: functional
Enterococcus gallinarum = test: Antibacterial activity against Enterococcus gallinarum 5F52C assessed as inhibition of bacterial growth incubated for 18 hrs by broth microdilution method; type: functional
Enterococcus faecium [14] = test: Antibacterial activity against Enterococcus faecium 36711 assessed as inhibition of bacterial growth incubated for 18 hrs by broth microdilution method; type: functional
Staphylococcus aureus [15] = test: Antibacterial activity against Staphylococcus aureus 718306 assessed as inhibition of bacterial growth incubated for 18 hrs by broth microdilution method; type: functional
Staphylococcus aureus [16] = test: Antibacterial activity against Staphylococcus aureus 6917 assessed as inhibition of bacterial growth incubated for 18 hrs by broth microdilution method; type: functional
Staphylococcus aureus [17] = test: Antibacterial activity against methicillin-resistant Staphylococcus aureus assessed as inhibition of bacterial growth incubated for 18 hrs by broth microdilution method; type: functional
[18] = Cytotoxicity against human LX2 cells incubated for 48 hrs by CCK-8 assay; type: toxicity, cell-based; conditions: lx-2, 48 h
RBE = test: Cytotoxicity against human RBE cells incubated for 48 hrs by CCK-8 assay; type: functional, cell-based
HCT-116 = test: Cytotoxicity against human HCT-116 cells incubated for 48 hrs by CCK-8 assay; type: functional, cell-based
MCF7 = test: Cytotoxicity against human MCF7 cells incubated for 48 hrs by CCK-8 assay; type: functional, cell-based
A549 = test: Cytotoxicity against human A549 cells incubated for 48 hrs by CCK-8 assay; type: functional, cell-based
HUVEC = test: Cytotoxicity against HUVEC cells incubated for 48 hrs by CCK-8 assay; type: toxicity, cell-based; conditions: human

## CCCCC/C=C1/C(=O)C(CC=C(C)C)=C(C)C1O (centres undefined)
HepG2
  Activity: inactive
HeLa
  Activity: inactive
Staphylococcus aureus [1]
  MIC: > 128 µg/mL
Staphylococcus aureus [2]
  MIC: > 128 µg/mL
Staphylococcus aureus [3]
  MIC: > 128 µg/mL
Staphylococcus aureus [4]
  MIC: > 128 µg/mL
Staphylococcus aureus [5]
  MIC: > 128 µg/mL
Staphylococcus aureus [6]
  MIC: > 128 µg/mL
Staphylococcus aureus [7]
  MIC: > 128 µg/mL
Staphylococcus aureus [8]
  MIC: > 128 µg/mL
Enterococcus faecalis [9]
  MIC: > 128 µg/mL
Staphylococcus aureus [10]
  MIC: > 128 µg/mL
Enterococcus faecalis [11]
  MIC: > 128 µg/mL
Micrococcus luteus
  MIC: > 128 µg/mL
Staphylococcus simulans
  MIC: > 128 µg/mL
Enterococcus faecium [12]
  MIC: > 128 µg/mL
Bacillus subtilis
  MIC: > 128 µg/mL
Enterococcus faecium [13]
  MIC: > 128 µg/mL
Enterococcus gallinarum
  MIC: > 128 µg/mL
Enterococcus faecium [14]
  MIC: > 128 µg/mL
Staphylococcus aureus [15]
  MIC: > 128 µg/mL
Staphylococcus aureus [16]
  MIC: > 128 µg/mL
Staphylococcus aureus [17]
  MIC: > 128 µg/mL
[18]
  Activity: Non-Toxic
RBE
  Activity: inactive
HCT-116
  Activity: inactive
MCF7
  Activity: inactive
A549
  Activity: inactive
HUVEC
  Activity: Non-Toxic
